How the values were obtained:
[1] = target: T1, purified human platelet fibrinogen receptor (GPIIb/IIIa) (Homo sapiens, UniProt P05106+P08514); assay: test (b): GPIIb/IIIa ELISA, inhibition of biotinylated fibrinogen binding; details: biotinylated fibrinogen 10 nM, read-out: pIC50 (-log(IC50)), 50% inhibition of biotinylated fibrinogen binding (converted)
T1 construct: Glycoprotein IIb/IIIa is isolated from human platelet lysates; from tissue
Experimental: (i) Preparation of human platelet lysates.
Platelet rich plasma (prp) is harvested by centrifugation (1000 rpm, 15 minutes) of whole blood anticoagulated with acid citrate dextrose (trisodium citrate 85 mM, citric acid 70 mM, d-glucose 110 mM), 1 part to 6 parts blood. Prostacyclin (PGI2, 1 μM) is added to the prp before centrifugation (2400 rpm, 15 min) and the resulting pellet is resuspended in modified Tyrodes' solution (NaCl 130 mM, KCl 26 mM, NaHCO3 12 mM, NaH2 PO4 0.5 mM, MgCl2 1 mM, CaCl2 20 mM, Glucose 12 mM, HEPES 5 mM) containing bovine serum albumin 3.5 g/L, PGI2 1 μM and hirudin 0.5 U/ml. The platelet suspension is centrifuged (2400 rpm, 15 minutes) and the resultant pellet resuspended in 500 μl of lysis buffer (octyl glucoside 50 mM, HEPES 10 mM, NaCl 150 mM, CaCl2 1 mM, MgCl2 1 mM, PMSF 1 mM, NEM 10 mM, leupeptin 0.1 mM), agitated at 4° C. for 15 minutes then centrifuged at 24000 rpm, 15 minutes. The supernatant is stored at 4° C. and the pellet re-suspended in 500 μl of lysis buffer. […]
96 well microtitre plates are coated with 100 μl purified human platelet fibrinogen receptor (GPIIb/IIIa) diluted in coating buffer (Tris-HCl 20 mM, NaCl 150 mM, CaCl2 1 mM, pH7.4) and left overnight at 4° C. […] Colour is allowed to develop for 10-15 minutes before optical densities are read at 650 nm. […]

platelet aggregation = assay: test (a) modified: activity after oral dosing to dogs; format: in vivo; details: dosed orally to dogs at 3 mg/kg
Experimental: Test (a) may be modified so as to assess the effects of a test compound ex vivo on the aggregation of human blood platelets after administration of the test compound to a laboratory animal, such as a rat, rabbit, guinea pig, mouse or dog. For example, groups of fourmale, fasted Alderley Park Wistar rats are orally dosed with a test compound or appropriate vehicle, and at suitable time intervals (1, 3, 5 and 8 hours after dosing) animals are anaesthetised with fluothane and bled by heart puncture. Blood is collected into 3.2% citrate (1 part to 9 parts whole blood) and platelet poor plasma (ppp) prepared by centrifugation (4500×g for 10 minutes). […]
Equal volumes (125 μl ) of rat ppp and human prp are mixed together, ADP added, and the whole incubated (37° C.) and stirred (900 rpm) in a BioData platelet aggregometer. Aggregation is induced with ADP and agonist EC50 values calculated for human prp/rat ppp mixtures from animals dosed with test compound or vehicle. A mean concentration ratio (concentration of ADP required to cause a 50% aggregation response in human prp/rat ppp mixtures from animals dosed with antagonist, divided by the concentration of ADP to cause 50% aggregation in human prp/rat ppp mixtures from animals dosed with vehicle) is calculated at each time point. […]

[2] = target: T2, ADP stimulated platelet aggregation in human, citrated, platelet-rich plasma (Homo sapiens, UniProt P05106+P08514); assay: test (a): inhibition of ADP stimulated platelet aggregation (Born); format: cell-based; details: ADP-induced aggregation, read-out: pA2 (potency of platelet aggregation inhibition) (converted)
T2 construct: aggregating human, citrated, platelet-rich plasma; endogenous in cells; host or cells: human platelets in citrated platelet-rich plasma
Description: (i) aggregating human, citrated, platelet-rich plasma by addition of adenosine diphosphate (ADP) so as to generate a dose-response curve;
(ii) generating a dose-response curve for ADP stimulated platelet aggregation in the presence of increasing amounts of a test compound (generally in the range 10^-5 M to 10^-10 M); and
(iii) calculating a pA2 value indicating potency of platelet aggregation inhibition for the test compound, averaged over several concentrations, from the calculated 50% response value for ADP aggregation in the presence and absence of the test compound.

T1 sequence (P08514 32-887 limits assumed): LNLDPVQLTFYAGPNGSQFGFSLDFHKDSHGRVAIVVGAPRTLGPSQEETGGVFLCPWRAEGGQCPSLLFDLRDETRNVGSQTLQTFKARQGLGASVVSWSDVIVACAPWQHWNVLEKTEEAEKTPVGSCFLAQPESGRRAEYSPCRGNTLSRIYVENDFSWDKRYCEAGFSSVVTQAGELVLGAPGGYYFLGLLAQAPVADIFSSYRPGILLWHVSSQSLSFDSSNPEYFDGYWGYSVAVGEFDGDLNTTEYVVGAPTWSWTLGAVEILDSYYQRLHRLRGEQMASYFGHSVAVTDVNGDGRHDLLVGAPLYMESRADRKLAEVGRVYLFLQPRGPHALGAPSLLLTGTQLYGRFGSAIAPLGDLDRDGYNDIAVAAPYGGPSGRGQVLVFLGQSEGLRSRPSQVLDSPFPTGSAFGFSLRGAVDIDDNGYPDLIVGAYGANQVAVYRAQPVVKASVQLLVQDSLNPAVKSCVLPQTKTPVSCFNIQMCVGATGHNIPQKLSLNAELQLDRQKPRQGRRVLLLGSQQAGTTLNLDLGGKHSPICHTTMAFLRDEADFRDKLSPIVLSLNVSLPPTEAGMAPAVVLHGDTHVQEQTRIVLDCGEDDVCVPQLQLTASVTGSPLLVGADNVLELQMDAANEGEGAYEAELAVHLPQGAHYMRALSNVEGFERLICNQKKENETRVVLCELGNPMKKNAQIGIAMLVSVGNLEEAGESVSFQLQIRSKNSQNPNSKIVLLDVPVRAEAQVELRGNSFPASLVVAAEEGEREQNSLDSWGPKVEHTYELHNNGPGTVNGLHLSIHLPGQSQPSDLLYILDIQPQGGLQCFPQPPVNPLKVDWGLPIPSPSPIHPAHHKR
T1 sequence (P08514 891-1039 limits assumed): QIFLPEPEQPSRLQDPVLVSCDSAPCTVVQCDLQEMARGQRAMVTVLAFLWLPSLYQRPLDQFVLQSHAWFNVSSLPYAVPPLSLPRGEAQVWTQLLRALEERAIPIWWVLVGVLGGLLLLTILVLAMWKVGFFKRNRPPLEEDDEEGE
T1 sequence (P05106 27-788): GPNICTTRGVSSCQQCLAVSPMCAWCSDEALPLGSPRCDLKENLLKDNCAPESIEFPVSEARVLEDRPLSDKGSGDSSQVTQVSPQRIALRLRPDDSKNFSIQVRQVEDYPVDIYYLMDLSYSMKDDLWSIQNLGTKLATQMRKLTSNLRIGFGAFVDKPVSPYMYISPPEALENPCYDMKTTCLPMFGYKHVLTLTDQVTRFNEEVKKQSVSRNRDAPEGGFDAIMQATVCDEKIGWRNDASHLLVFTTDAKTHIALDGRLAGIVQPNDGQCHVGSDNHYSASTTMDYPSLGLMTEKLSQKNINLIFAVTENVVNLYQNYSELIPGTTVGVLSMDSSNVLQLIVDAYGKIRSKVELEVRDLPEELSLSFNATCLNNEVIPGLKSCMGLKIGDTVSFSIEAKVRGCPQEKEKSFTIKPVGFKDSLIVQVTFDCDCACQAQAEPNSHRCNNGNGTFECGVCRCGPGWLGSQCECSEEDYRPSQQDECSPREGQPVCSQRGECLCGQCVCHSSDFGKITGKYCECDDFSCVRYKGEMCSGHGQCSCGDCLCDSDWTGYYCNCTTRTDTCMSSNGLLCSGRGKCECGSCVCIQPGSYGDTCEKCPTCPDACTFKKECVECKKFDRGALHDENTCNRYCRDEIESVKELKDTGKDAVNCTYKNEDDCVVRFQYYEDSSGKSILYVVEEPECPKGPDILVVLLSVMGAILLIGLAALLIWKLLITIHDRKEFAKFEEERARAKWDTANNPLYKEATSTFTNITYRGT
T2 sequence (P08514 32-887 limits assumed): as the sequence (P08514 32-887 limits assumed) above
T2 sequence (P08514 891-1039 limits assumed): as the sequence (P08514 891-1039 limits assumed) above
T2 sequence (P05106 27-788): as the sequence (P05106 27-788) above

| Compound | IC50 [1] | duration of activity after oral dosing (platelet aggregation) | Kb [2] |
| --- | --- | --- | --- |
| COC(=O)COc1ccc(C(=O)NNC(=O)c2ccc(C(=N)N)cc2)cc1 [Example 12, Methyl 4-[3-(4-amidinobenzoyl)carbazoyl]phenoxyacetate] | 1120 nM | up to 24 hours | 200 nM |
| N=C(N)c1ccc(C(=O)NNC(=O)c2ccc(OCC(=O)O)cc2)cc1 [Example 13, 4-[3-(4-Amidinobenzoyl)carbazoyl]phenoxyacetic acid] | 15.8 nM |  | 7.94 nM |

From US5612373A, “Certain diacyl hydrazine derivatives” (Zeneca Limited, priority 1993, dated 1997)
